According to PMC9013261 (Bioorganic Chemistry, 2021):
Converted amounts (≈) assume the structure as drawn.

What was measured:
[1] = molecular target: 3CLpro of SARS-CoV-2 (Severe acute respiratory syndrome coronavirus 2, UniProt P0DTD1); test: biochemical
[2] = tested on: Bacillus subtilis 168; test: Broth microdilution antibacterial assay; format: cell-based; conditions: Bacillus subtilis, 168, read-out: MIC B. subtilis 168
[3] = tested on: Staphylococcus epidermidis ATCC 35984 (methicillin-resistant); test: Broth microdilution antibacterial assay; format: cell-based; conditions: ATCC35984, read-out: MIC S. epidermidis ATCC 35984
[4] = tested on: Pseudomonas aeruginosa PAO1 (chloramphenicol-resistant); test: Broth microdilution antibacterial assay; format: cell-based; conditions: PAO1, read-out: MIC P. aeruginosa PAO1
[5] = tested on: Klebsiella pneumoniae ATCC 10031; test: Broth microdilution antibacterial assay; format: cell-based; conditions: ATCC10031, read-out: MIC K. pneumonia ATCC 10031

## CCCCCCCCCCCc1cc(O)cc(O)c1 [Compound 3, 5-undecyl-1,3-benzenediol]
[1]
  IC50: > 100 µM
[2]
  MIC: 1 µg/mL (≈ 3.78 µM)
[3]
  MIC: 2 µg/mL (≈ 7.56 µM)
[4]
  MIC: > 64 µg/mL
[5]
  MIC: 8 µg/mL (≈ 30.3 µM)

## CCCCCCCCCCCCCCc1cc(O)cc(O)c1 [Compound 5, 5-tetradecyl-1,3-benzenediol]
[1]
  IC50: > 100 µM
[2]
  MIC: > 64 µg/mL
[3]
  MIC: > 64 µg/mL
[4]
  MIC: > 64 µg/mL
[5]
  MIC: > 64 µg/mL

## CCCCCCCC/C=C\CCCc1cc(O)cc(O)c1 [Compound 7, (Z)-5-(trideca-4-enyl)resorcinol]
[1]
  IC50: > 100 µM
[2]
  MIC: 1 µg/mL (≈ 3.44 µM)
[3]
  MIC: 4 µg/mL (≈ 13.8 µM)
[4]
  MIC: > 64 µg/mL
[5]
  MIC: > 64 µg/mL
